We go through three compounds from patent publication US7052874B2, “Detection of antibacterial activity in excretory secretory product of adult Trichuris suis” (priority 2000, dated 2006).

Structures can show the parent of a compound that is named as a salt. Where two headings read alike, the source gives them in different places.

Series [1] relates to Campylobacter jejuni. In words: Qualitative broth microdilution assay of ultrafiltration and HPLC fractions. Conditions: C18 reverse phase HPLC, 5–80% ACN gradient. Format: cell-based. Here is the method: (§1) A broth microdilution method in 96 well plates was used to obtain qualitative and quantitative measures of antibacterial activity. Qualitatively, 50 μl samples of ESP were added to 50 μl suspensions of Campylobacter jejuni (containing about 5×10^5 cfu, as determined by standard serial dilution and plating) in 96 well plates. Plates were evaluated for growth as indicated by the presence of either turbidity or pellet of bacterial cells in the bottoms of U-shaped wells after 48 hr incubation.
Ultrafiltration. Ultrafiltration methods were used to nominally size fractionate ESP for an approximate determination of the molecular weight of the antibacterial agent(s). AMICON stirred cells under pressurized nitrogen gas were used to separate ESP into fractions above (retentate) and below (filtrate) 30,000 MW with a Millipore YM30 membrane (Millipore) and fractions above (retentate) and below (filtrate) 10,000 MW with a Millipore YM10 membrane. Prior to bioassay, the concentrated retentate fraction was returned to its original volume in RPMI-1640 media to match the volume of the filtrate so that comparisons of relative activity could be made without distortions due to volume differences. […]
High performance liquid chromatography. […] Absorbance of the eluate was monitored at 214 nm, and fractions were collected manually as peaks were detected. […]
In general terms: In broth dilution the organism is exposed to a series of concentrations in liquid medium.

Series [2] deals with Campylobacter jejuni. Nature of the series: Heat stability of antibiotics (boiling, then qualitative broth microdilution assay). The format is cell-based. Conditions: for inactivation of antibiotic by heat treatment: boiling. On the procedure: as §1, with “incubation. […] The size of the drug was also taken into consideration. Additionally, an experiment to assess the heat stability of the antibiotics was performed.” for “incubation.”

Series [3] is described as follows: n-octanol/water partition coefficient (log PC) of antibiotics. The format is physicochemical. Conditions: in parentheses beside log PC. Here is the method: Consideration of CAP contamination. […] Using the worst-case scenario, the predicted maximum amount of CAP absorbed and how much would be released into the medium if the whipworms dissolved (i.e., released 100%) was estimated. […] It was assumed that the aggregate whipworm volume of these eccentrically shaped nematodes occupied 4% of the incubation well volume (4 whipworms/ml at about 10 μl/whipworm).

For series [4] the following is noted: compiled from a drug database at Upjohn; cited from earlier work.

With `O=C(N[C@H](CO)[C@H](O)c1ccc([N+](=O)[O-])cc1)C(Cl)Cl` [Chloramphenicol, chloramphenicol], the “antibacterial activity of HPLC fractions” value in series [1] is listed as “one fraction with antibacterial activity”. Also, in series [2], the “Antibacterial activity after boiling” value was “+” and the “inactivation of antibiotic by heat treatment” value (from here on “inactivation of antibiotic”) is “not heat-inactivated”.
For the compound `CC1(C)S[C@@H]2[C@H](NC(=O)Cc3ccccc3)C(=O)N2[C@H]1C(=O)O` [Penicillin G], the Concentrating factor entry in series [3] is “(71×)”. The “Antibacterial activity after boiling” value in series [2] (antibiotics (133 concentration) boiled for 10 minutes) was “−”. The “inactivation of antibiotic” value in series [2] is given as “inactivated by heat treatment”.
With `[H]/N=C(/N)N[C@H]1[C@H](O)[C@@H](O)[C@H](O[C@@H]2O[C@@H](C)[C@](O)(C=O)[C@H]2O[C@@H]2O[C@@H](CO)[C@H](O)[C@@H](O)[C@@H]2NC)[C@@H](N/C(N)=N\[H])[C@@H]1O` [Streptomycin sulfate], the “log PC (n-octanol/water partition coefficient)” value in series [4] was −9.53. Also, in series [2], the “Antibacterial activity after boiling” value was “+” and the “inactivation of antibiotic” value is given as “boiling did not inactivate”.
